Results taken from ChEMBL document CHEMBL1147116 (Antimicrob Agents Chemother, 2007).
In brackets after ≈: the same amount, converted by molar mass.

Assays:
Streptococcus pneumoniae [1] = experiment: fAUC/MIC ratio of Streptococcus pneumoniae ATCC 49610 at 750 mg
Streptococcus pneumoniae [2] = experiment: microbe, parasite or virus in culture; settings: Staphylococcus aureus, ATCC 49619, 24 h
[3] = Half life at 1000 mg/24 hrs regimen in vitro PK model; assay type: ADME
Streptococcus pneumoniae [4] = experiment: fAUC/MIC ratio of Streptococcus pneumoniae BSP-2443 at 1000 mg
Streptococcus pneumoniae [5] = experiment: microbe, parasite or virus in culture; settings: Staphylococcus aureus, BSP2443
[6] = Peak free concentration at 875 mg/24 hrs regimen in vitro PK model; assay type: ADME
Streptococcus pneumoniae [7] = experiment: microbe, parasite or virus in culture; settings: Staphylococcus aureus, ATCC 49619
Streptococcus pneumoniae [8] = experiment: microbe, parasite or virus in culture; settings: Staphylococcus aureus, BSP2443, 96 h
Streptococcus pneumoniae [9] = experiment: microbe, parasite or virus in culture; settings: Staphylococcus aureus, BSP2443; remark: listed apart in the source
[10] = Peak free concentration at 812.5 mg/24 hrs regimen in vitro PK model; assay type: ADME
Streptococcus pneumoniae [11] = experiment: fAUC/MIC ratio of Streptococcus pneumoniae ATCC 49610 at 1000 mg
[12] = Peak free concentration at 843.5 mg/24 hrs regimen in vitro PK model; assay type: ADME
Streptococcus pneumoniae [13] = experiment: fAUC/MIC ratio of Streptococcus pneumoniae ATCC 49610 at 812.5 mg
[14] = Peak free concentration at 1000 mg/24 hrs regimen in vitro PK model; assay type: ADME
Streptococcus pneumoniae [15] = experiment: fAUC/MIC ratio of Streptococcus pneumoniae BSP-2443 at 843.5 mg
Streptococcus pneumoniae [16] = experiment: microbe, parasite or virus in culture; settings: Staphylococcus aureus, ATCC 49619; remark: listed apart in the source
[17] = Half life at 750 mg/24 hrs regimen in vitro PK model; assay type: ADME
Streptococcus pneumoniae [18] = experiment: microbe, parasite or virus in culture; settings: Staphylococcus aureus, BSP2443; remark: listed apart in the source
Streptococcus pneumoniae [19] = experiment: microbe, parasite or virus in culture; settings: Staphylococcus aureus, BSP2443; remark: listed apart in the source
Streptococcus pneumoniae [20] = experiment: fAUC/MIC ratio of Streptococcus pneumoniae BSP-2443 at 812.5 mg
Streptococcus pneumoniae [21] = experiment: fAUC/MIC ratio of Streptococcus pneumoniae BSP-2443 at 875 mg
Streptococcus pneumoniae [22] = experiment: Susceptibility of Streptococcus pneumoniae ATCC 49619 by microdilution method; assay type: functional
Streptococcus pneumoniae [23] = experiment: fAUC/MIC ratio of Streptococcus pneumoniae BSP-2443 at 937.5 mg
Streptococcus pneumoniae [24] = experiment: Susceptibility of Streptococcus pneumoniae BSP-2443 by microdilution method; assay type: functional; settings: BSP2443
[25] = Peak free concentration at 750 mg/24 hrs regimen in vitro PK model; assay type: ADME
Streptococcus pneumoniae [26] = experiment: fAUC/MIC ratio of Streptococcus pneumoniae ATCC 49610 at 843.5 mg
Streptococcus pneumoniae [27] = experiment: microbe, parasite or virus in culture; settings: Staphylococcus aureus, BSP2443, 96 h; remark: listed apart in the source
Streptococcus pneumoniae [28] = experiment: microbe, parasite or virus in culture; settings: Staphylococcus aureus, ATCC 49619; remark: listed apart in the source
[29] = Half life at 843.5 mg/24 hrs regimen in vitro PK model; assay type: ADME
Streptococcus pneumoniae [30] = experiment: microbe, parasite or virus in culture; settings: Staphylococcus aureus, BSP2443; remark: listed apart in the source
[31] = Half life at 875 mg/24 hrs regimen in vitro PK model; assay type: ADME
Streptococcus pneumoniae [32] = experiment: fAUC/MIC ratio of Streptococcus pneumoniae ATCC 49610 at 500 mg
Streptococcus pneumoniae [33] = experiment: microbe, parasite or virus in culture; settings: Staphylococcus aureus, ATCC 49619; remark: listed apart in the source
Streptococcus pneumoniae [34] = experiment: microbe, parasite or virus in culture; settings: Staphylococcus aureus, ATCC 49619; remark: listed apart in the source
[35] = Half life at 812.5 mg/24 hrs regimen in vitro PK model; assay type: ADME
Streptococcus pneumoniae [36] = experiment: microbe, parasite or virus in culture; settings: Staphylococcus aureus, ATCC 49619, 24 h; remark: listed apart in the source
[37] = Half life at 500 mg/24 hrs regimen in vitro PK model; assay type: ADME
Streptococcus pneumoniae [38] = experiment: microbe, parasite or virus in culture; settings: Staphylococcus aureus, ATCC 49619; remark: listed apart in the source
[39] = Peak free concentration at 500 mg/24 hrs regimen in vitro PK model; assay type: ADME
Streptococcus pneumoniae [40] = experiment: fAUC/MIC ratio of Streptococcus pneumoniae ATCC 49610 at 875 mg
Streptococcus pneumoniae [41] = experiment: fAUC/MIC ratio of Streptococcus pneumoniae BSP-2443 at 750 mg
Streptococcus pneumoniae [42] = experiment: microbe, parasite or virus in culture; settings: Staphylococcus aureus, ATCC 49619, 24 h; remark: listed apart in the source
Streptococcus pneumoniae [43] = experiment: microbe, parasite or virus in culture; settings: Staphylococcus aureus, BSP2443; remark: listed apart in the source
Staphylococcus aureus [44] = experiment: Bactericidal activity against Staphylococcus aureus ATCC 49619 at fAUC/MIC of […] after 96 hrs in pharmacodynamic model; assay type: functional; settings: ATCC 49619, 96 h
Streptococcus pneumoniae [45] = experiment: microbe, parasite or virus in culture; settings: Staphylococcus aureus, BSP2443; remark: listed apart in the source
[46] = Peak free concentration at 100 mg/24 hrs regimen in vitro PK model; assay type: ADME
Streptococcus pneumoniae [47] = experiment: microbe, parasite or virus in culture; settings: Staphylococcus aureus, ATCC 49619; remark: listed apart in the source
Streptococcus pneumoniae [48] = experiment: microbe, parasite or virus in culture; settings: Staphylococcus aureus, ATCC 49619; remark: listed apart in the source
Streptococcus pneumoniae [49] = experiment: microbe, parasite or virus in culture; settings: Staphylococcus aureus, BSP2443, 72 h
Streptococcus pneumoniae [50] = experiment: Bactericidal activity against Streptococcus pneumoniae BSP-2443 with parC S52G, N91D mutation and gyrA S114G mutation at fAUC/MIC of 24 after 96 hrs in pharmacodynamic model; settings: BSP2443, 96 h
[51] = Peak free concentration at 75 mg/24 hrs regimen in vitro PK model; assay type: ADME
[52] = Peak free concentration at 50 mg/24 hrs regimen in vitro PK model; assay type: ADME
[53] = Peak free concentration at 200 mg/24 hrs regimen in vitro PK model; assay type: ADME
[54] = Peak free concentration at 400 mg/24 hrs regimen in vitro PK model; assay type: ADME
Streptococcus pneumoniae [55] = experiment: microbe, parasite or virus in culture; settings: Staphylococcus aureus, ATCC 49619; remark: listed apart in the source
Staphylococcus aureus [56] = experiment: Bactericidal activity against Staphylococcus aureus ATCC 49619 at fAUC/MIC of […] after 72 hrs in pharmacodynamic model; assay type: functional; settings: ATCC 49619, 72 h
Streptococcus pneumoniae [57] = experiment: Bactericidal activity against Streptococcus pneumoniae BSP-2443 with parC S52G, N91D mutation and gyrA S114G mutation at fAUC/MIC of 24 after 72 hrs in pharmacodynamic model; settings: BSP2443, 72 h
Streptococcus pneumoniae [58] = experiment: microbe, parasite or virus in culture; settings: Staphylococcus aureus, BSP2443, 96 h; remark: listed apart in the source
Streptococcus pneumoniae [59] = experiment: microbe, parasite or virus in culture; settings: Staphylococcus aureus, ATCC 49619; remark: listed apart in the source
Streptococcus pneumoniae [60] = experiment: microbe, parasite or virus in culture; settings: Staphylococcus aureus, ATCC 49619; remark: listed apart in the source
Streptococcus pneumoniae [61] = experiment: microbe, parasite or virus in culture; settings: Staphylococcus aureus, BSP2443; remark: listed apart in the source
Streptococcus pneumoniae [62] = experiment: microbe, parasite or virus in culture; settings: Staphylococcus aureus, BSP2443; remark: listed apart in the source

Question: What does the source list for `C[C@H]1COc2c(N3CCN(C)CC3)c(F)cc3c(=O)c(C(=O)O)cn1c23.C[C@H]1COc2c(N3CCN(C)CC3)c(F)cc3c(=O)c(C(=O)O)cn1c23.O` [LEVOFLOXACIN]?
Answer: fAUC/MIC (Streptococcus pneumoniae [1]): 79; MIC (Streptococcus pneumoniae [2]): 1.5 µg/mL; half-life [3]: 7.85 h; fAUC/MIC (Streptococcus pneumoniae [4]): 117; MIC (Streptococcus pneumoniae [5]): 0.75 µg/mL; Activity [6]: 7.19 µg/mL; MIC (Streptococcus pneumoniae [7]): 0.75 µg/mL; MIC (Streptococcus pneumoniae [8]): 2 µg/mL; MIC (Streptococcus pneumoniae [9]): 0.75 µg/mL; Activity [10]: 6.78 µg/mL; fAUC/MIC (Streptococcus pneumoniae [11]): 114; Activity [12]: 7.09 µg/mL; fAUC/MIC (Streptococcus pneumoniae [13]): 82; Activity [14]: 8.75 µg/mL; fAUC/MIC (Streptococcus pneumoniae [15]): 86; MIC (Streptococcus pneumoniae [16]): > 32 µg/mL; half-life [17]: 7.52 h; MIC (Streptococcus pneumoniae [18]): 0.75 µg/mL; MIC (Streptococcus pneumoniae [19]): 0.75 µg/mL; fAUC/MIC (Streptococcus pneumoniae [20]): 83; fAUC/MIC (Streptococcus pneumoniae [21]): 94; MIC (Streptococcus pneumoniae [22]): 0.025 µg/mL; fAUC/MIC (Streptococcus pneumoniae [23]): 104; MIC (Streptococcus pneumoniae [24]): 0.025 µg/mL; Activity [25]: 6.13 µg/mL; fAUC/MIC (Streptococcus pneumoniae [26]): 89; MIC (Streptococcus pneumoniae [27]): > 32 µg/mL; MIC (Streptococcus pneumoniae [28]): 0.75 µg/mL; half-life [29]: 6.98 h; MIC (Streptococcus pneumoniae [30]): 0.75 µg/mL; half-life [31]: 8.02 h; fAUC/MIC (Streptococcus pneumoniae [32]): 55; MIC (Streptococcus pneumoniae [33]): > 32 µg/mL; MIC (Streptococcus pneumoniae [34]): 0.75 µg/mL; half-life [35]: 7.06 h; MIC (Streptococcus pneumoniae [36]): 1.5 µg/mL; half-life [37]: 8.01 h; MIC (Streptococcus pneumoniae [38]): > 32 µg/mL; Activity [39]: 4.1 µg/mL; fAUC/MIC (Streptococcus pneumoniae [40]): 97; fAUC/MIC (Streptococcus pneumoniae [41]): 75; MIC (Streptococcus pneumoniae [42]): 0.75 µg/mL; MIC (Streptococcus pneumoniae [43]): > 32 µg/mL

Question: Which results are given for `COc1c(N2C[C@@H]3CCCN[C@@H]3C2)c(F)cc2c(=O)c(C(=O)O)cn(C3CC3)c12` [MOXIFLOXACIN]?
Answer: MIC (Staphylococcus aureus [44]): 0.75 µg/mL (≈ 1.87 µM); MIC (Streptococcus pneumoniae [45]): 0.25 µg/mL (≈ 0.623 µM); Activity [46]: 0.6 µg/mL; MIC (Streptococcus pneumoniae [47]): 0.125 µg/mL (≈ 0.311 µM); MIC (Streptococcus pneumoniae [48]): 0.125 µg/mL (≈ 0.311 µM); MIC (Streptococcus pneumoniae [49]): 4 µg/mL (≈ 9.96 µM); MIC (Streptococcus pneumoniae [50]): 1.5 µg/mL; Activity [51]: 0.45 µg/mL; Activity [52]: 0.3 µg/mL; Activity [53]: 1.1 µg/mL; MIC (Streptococcus pneumoniae [22]): 0.025 µg/mL (≈ 0.0623 µM); Activity [54]: 2.48 µg/mL; MIC (Streptococcus pneumoniae [55]): 0.125 µg/mL (≈ 0.311 µM); MIC (Staphylococcus aureus [56]): 0.19 µg/mL (≈ 0.473 µM); MIC (Streptococcus pneumoniae [24]): 0.025 µg/mL (≈ 0.0623 µM); MIC (Streptococcus pneumoniae [57]): 0.38 µg/mL; MIC (Streptococcus pneumoniae [58]): 4 µg/mL (≈ 9.96 µM); MIC (Streptococcus pneumoniae [59]): 0.125 µg/mL (≈ 0.311 µM); MIC (Streptococcus pneumoniae [60]): 0.125 µg/mL (≈ 0.311 µM); MIC (Streptococcus pneumoniae [61]): 0.25 µg/mL (≈ 0.623 µM); MIC (Streptococcus pneumoniae [62]): 0.25 µg/mL (≈ 0.623 µM)
